Series [1] relates to isolation-induced aggressive behavior. The experiment in a line: Isolation-Induced Aggression in Mice. It counts as in vivo, Male Balb/c mice. Particulars: oral, Table II discussion. As to the method: Male Balb/c mice (Charles River) were used. […] Isolated mice failing to consistently attack an intruder were eliminated from the colony. Drug testing was carried out by treating the isolated mice with test drugs or standards. Fifteen minutes after dosing with test drugs by the oral route, one isolated mouse was removed from its home cage and placed in the home cage of another isolate. Scoring was a yes or no response for each pair. A maximum of 3 minutes was allowed for an attack and the pair was separated immediately upon an attack. Selection of home cage and intruder mice was randomized for each test. Mice were treated and tested twice a week with at least a 2 day washout period between treatments.

The test system of series [2] is PCP-induced turning behavior. The experiment in a line: PCP-induced turning behavior in rats. Type of series: in vivo, Male Sprague-Dawley rats. Conditions: p.o., Table III discussion. The procedure:
Male Sprague-Dawley rats (CD/CR, Charles River), weighing 190-290 g, were used for surgery. In order to spare […] neurons, rats were injected with 25 mg/kg imipramine i.p. 30 minutes before surgery. The rats were anesthetized with a 1:1.2 ratio mixture of Xylazine:Ketamine given 0.1 mL/100 g body weight i.m. A Ringers-Wydaze (100:0.01) solution was given to prevent dehydration. Dopamine was depleted in the right striatum by injecting the neurotoxin 6-hydroxydopamine (6-OHDA) into the substantia nigra of the right cerebral hemisphere. Five mg of 6-OHDA was dissolved in 5 mL of a 0.04% ascorbic acid solution which had been deoxygenated with nitrogen. Five μL of the 6-OHDA solution was injected into the substantia nigra through a 26 gauge needle over a five minute period. […]
Rotation rate and direction were determined with Coulbourn Instruments Rotometry Monitors. Clockwise and counter clockwise rotations were recorded at 30 and 60 minute intervals. […]
The data were analyzed with an analysis of variance statistical test and individual comparisons of each dose of test drug to control were made with Dunnett's multiple range test. The ED50 was calculated with a Litchfield and Wilcoxon test using percent of control values.

Another series concerns catalepsy. The experiment in a line: Induction of catalepsy. Type of series: in vivo, Male CD rats. Conditions: rats, oral; Table III discussion. The procedure:
Male CD rats (Charles River) weighing 250-300 g were treated with test drugs and standards by the oral route and tested for the presence of catalepsy 30 minute, 60 minute, and 90 minute after treatment. To test for catalepsy, each rat is placed with its front paws over a 10 cm high horizontal bar. The intensity of catalepsy is measured by the length of time it takes the animal to move both forelegs to the table. A time of 20 seconds is considered maximal catalepsy.

Structures can show the parent of a compound that is named as a salt.

Consider `Fc1ccc(OCC2CCN(CC3CC3)CC2)cc1` [Example 1, 1-(Cyclopropylmethyl)-4-(4-fluorophenoxymethyl)piperidine], for which the “inhibiting the isolation-induced aggressive behavior, in words” value in series [1] was “potent activities”.
Consider `O=C(CC1CCN(CC2CC2)CC1)c1ccc(F)cc1` [Example 504, 1-(Cyclopropylmethyl)-4-2'-(4"-Fluorophenyl)-2-oxoethyl)-piperidine, hydrobromide salt], for which the “inhibiting PCP-induced turning behavior, in words” value in series [2] is “potent activity”. For the same molecule, in the series on catalepsy, the “producing catalepsy, in words” value is reported as “does not produce catalepsy”.
Take `O=C(CCCN1CCC(O)(c2ccc(Cl)cc2)CC1)c1ccc(F)cc1` [Haloperidol]: the “inhibiting the isolation-induced aggressive behavior, in words” value in series [1] is listed as “potent activities”. Also, the “inhibiting PCP-induced turning behavior, in words” value in series [2] is reported as “potent activity”. Besides, the “producing catalepsy, in words” value with catalepsy is “very potent in producing catalepsy”.
